Activity calls are given as the source filed them.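 How the source made its calls: active means compounds giving half or more protection of infected cells from virus-caused growth loss, again on retest; inactive means the rest.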 Where a SMILES comes first, the peptide text is derived from it. [ ]: non-standard residue; d: D form. The star is where a group is joined. ξ: configuration not given here. Boc = CC(C)(C)OC(=O)*; ξV = CC(C)C(N)C(=O)O; OBn = c1ccc(CO*)cc1
Test system: CEM cells HIV-1 protection, formazan growth assay
Assay: NCI AIDS Antiviral Assay
Conditions: for IC50: measured here: growth of uninfected CEM cells
How it was run: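 Steps: treat uninfected and HIV-1-infected human CEM cells at five drug levels; quantify growth by soluble formazan; retest any compound reaching 50% protection; classify actives from the retest.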

SMILES | EC50 [µM] | IC50 [µM] | outcome
COC(=O)N1CC2CCCC(C2)c2ccccc21 (stereo not given) | > 204 | 186 | –
CSSc1ccccc1 | > 20 | 7.76 | –
N#CC(C#N)=C1NC(=O)CC(=O)N1 | – | – | inactive
COP1(=S)OCC2CCC[C@@H]2O1 (stereo not given in full) | – | – | inactive
CN/N=C(\C(=O)Nc1ccc(C(F)(F)F)cc1[N+](=O)[O-])C(c1cnc2ccc([N+](=O)[O-])cc2n1)[N+](=O)[O-] (stereo not given) | > 251 | 138 | –
Cn1c(COC(=O)NC2CCCCC2)c(COC(=O)NC2CCCCC2)c2ccc3cc(Cl)c(Cl)cc3c21 | > 174 | 6.46 | –
Oc1cccc2c(Cl)ccnc12 | > 20 | 1.58 | –
c1csc(-c2nnc(C34CC5CC(CC(C5)C3)C4)o2)c1 | > 200 | 50.1 | –
O=C(O)c1cc(=O)c2cccc(O)c2[nH]1 | > 200 | > 200 | –
S=c1[nH]c2ccccc2s1.[Zn+2] | > 26.3 | > 26.3 | –
COc1ccc2c3ccc4c(c3n(C)c2c1)C(=O)c1ccccc1C4=O | > 1.51 | > 1.51 | –
COc1cc(OC)c2c(c1)OC(c1ccccc1)CC2=O (stereo not given) | > 200 | > 200 | –
COc1ccc(OC)c(C(=O)/C=C\C(=O)O)c1 | > 219 | 24.5 | –
CSc1sc2ccccc2[s+]1 | – | – | inactive
CC1(CCCC2(C)CCNC2=O)OCCO1 (stereo not given) | > 200 | > 200 | –
COC(=O)Cn1cnc2c(Cl)nc(Nc3ccccc3)nc21 | > 200 | 63.1 | –
CN1C(=O)CC(Sc2ccccc2)c2cc(Cl)ccc21 (stereo not given) | > 200 | 15.8 | –
FC1=C2C3CCC(C3)C2C1(F)F (stereo not given) | > 200 | > 200 | –
CCCC1CC(=O)NC(=O)C1C(=O)OC(C)(C)C (stereo not given) | > 200 | > 200 | –
CC(CC=O)Nc1nn2c(=O)c3ccccc3nc2s1 (stereo not given) | > 200 | 132 | –
O=S1(=O)CCCS(=O)(=O)C1CC1S(=O)(=O)CCCS1(=O)=O | > 245 | > 245 | –
O=C1C=C(Nc2cccnc2)c2ccccc2C1=O | > 20.9 | 18.2 | –
O=C(NCc1ccccc1)OCCO | – | – | inactive

SMILES | EC50 [µM] | IC50 [µM] | outcome
CC1CCN(SSc2nc3ccccc3s2)CC1 | 45.7 | 112 | –
CC(C)(C)NC(=O)c1ccccc1[Se][Se]c1ccccc1C(=O)NC(C)(C)C | 10.2 | 13.2 | –
CC(C)=C(OP1(=S)OCCN1C)C(C)(C)C(=O)N(C)C (stereo not given) | > 776 | 537 | –
COC(=O)c1ccc(CO/N=C(\c2ccccc2)c2ccccn2)cc1 | > 162 | 57.5 | –
O=C1Cc2cccc(=O)c(O)c2C(=O)O1 | > 1200 | 282 | –
COc1ccc(/C=C2/N=C(c3ccccc3)OC2=O)cc1OC | > 23.4 | > 23.4 | –
CCOc1cc(/C=C/c2c(C#N)c(=O)oc3ccc(C)cc23)ccc1O | > 25.1 | 4.47 | –
N#Cc1ccc(C2NN=CC23C(=O)c2ccccc2OC3c2ccccc2)cc1 (stereo not given) | > 200 | 64.6 | –
COC(=O)N/N=C(/CCC(=O)Nc1ccc(C)c(C)c1)CC(=O)C(C)(C)C | > 661 | > 661 | –
CCOP(=S)(NN=C1CCC(C(C)(C)C)CC1)OCC (stereo not given) | > 200 | 89.1 | –
CC(=Nc1ccccc1C(=O)[O-])c1c([O-])ccc2c(C)cc(=O)oc12.[Co+2].[OH3+].[OH3+].[OH3+] | > 3.24 | > 3.24 | –
CC(C)(C)OC(=O)N[C@H]1CC2(C=C(Cl)C(=O)C(Cl)=C2)OC1=O | – | – | inactive
CC(=O)OC1(C#N)CC2OC1C1C2N1C(=O)OC(C)(C)C (stereo not given) | > 427 | > 427 | –
C=C(C)CCC1C=[N+]([O-])OC(C)(C)C1(C)C (stereo not given) | > 200 | 107 | –
COc1ccc(-c2cc(=O)c3c(OC)c(O)c(OC)cc3o2)cc1 | > 200 | 38.9 | –
CC(C)C(NC(=O)CNC(=O)OC(C)(C)C)C(=O)OCc1ccccc1 (stereo not drawn) (Boc-Gly-[ξV]-OBn) | > 200 | 148 | –
O=C(O)Cc1ccc2c(c1O)C(=O)c1c(ccc(CC(=O)O)c1O)C2=O | > 191 | 126 | –
CO/N=C(/C(=O)Nc1c[n+](CC(=O)[O-])cs1)c1csc(N)n1 | > 145 | > 145 | –
CCCCCCCCCc1cc(=O)c2ccc(OCc3ccccc3)cc2o1 | > 2.75 | > 2.75 | –
COC(=O)C(Cc1cn(C(C)=O)c2ccccc12)P(=O)(OC)OC (stereo not given) | > 200 | > 200 | –
C[N+](C)(C)CC(=O)N/N=C(/CC1OC(=O)c2ccccc21)c1ccccc1O (stereo not given) | > 120 | 77.6 | –
Oc1ccc2ccccc2c1CNCc1c(O)ccc2ccccc12 | > 21.9 | > 21.9 | –
CC(=O)Nc1n[n+]([O-])c2cc(C)ccc2[n+]1[O-] | > 200 | 0.955 | –

SMILES | EC50 [µM] | IC50 [µM] | outcome
COc1cnnc2ccccc12 | > 676 | 603 | –
Cn1c(=O)c2c(nc3sc4ncccc4c(=O)n32)n(C)c1=O | > 151 | > 151 | –
CCn1c2ccccc2c2c(-c3ccccc3)cc3c(c21)C(=O)N(c1ccccc1)C3=O | > 6.61 | > 6.61 | –
O=C(N/N=C1\CCc2ccccc21)N/N=C1\CCc2ccccc21 | > 200 | > 200 | –
O=C(N/N=C/c1ccc(O)c(S(=O)(=O)O)c1)C(=O)N/N=C/c1ccc(O)c(S(=O)(=O)O)c1 | > 100 | > 100 | –
CCCCC1C=Cn2c(=O)oc3c(OC(C)C)c(C)c(O)c1c32 (stereo not given) | > 200 | 2.51 | –
C[C@@H]1C[C@@H](O)[C@@]2(O)C13CC(=O)OC(C3)[C@@H](C)[C@@]2(C)CO (stereo not given in full) | > 200 | > 200 | –
C=CCCCC1(C)CCCCNC1=O (stereo not given) | 186 | > 200 | –
Cc1n[nH]c(C)c1N=O | > 200 | 4.27 | –
CCC[CH2][Sn]1([CH2]CCC)[S]CC[N]1S(=O)(=O)c1ccc(C)cc1 | > 200 | 0.0776 | –
COc1ccc(C(=O)C(c2ccc(OC)cc2)C2(O)C(=O)Nc3c2ccc(Cl)c3C)cc1 (stereo not given) | > 11.5 | > 11.5 | –
CC(=O)NC(=O)C(C(C)=O)c1ccccc1 (stereo not given) | > 1150 | > 1150 | –
Cn1c(-c2ccc(/C=N\N3CCN(/N=C/c4ccc(-c5c[n+]6ccccc6n5C)cc4)CC3)cc2)c[n+]2ccccc12 | > 3.02 | > 3.02 | –
COC(=O)/C(=C\c1ccco1)P(=O)(OC)OC | > 200 | 191 | –
COC(=O)C(C(=O)C(=O)Nc1nc(=S)[nH][nH]1)c1csc(N)n1 (stereo not given) | > 724 | > 724 | –
COC(=O)C1(Cc2ccccc2)Cc2ccc3c(c2C1=O)CCC3 (stereo not given) | > 200 | > 200 | –
COC1(CC[C@H](C)COC2OC(CO)C(O)C(O)C2O)O[C@H]2C[C@H]3[C@@H]4CC=C5C[C@@H](OC6OC(CO)C(OC7OC(C)C(O)C(O)C7O)C(O)C6OC6OC(C)C(O)C(O)C6O)CC[C@]5(C)[C@H]4CC[C@]3(C)[C@H]2[C@@H]1C (stereo not given in full) | > 200 | 1.58 | –
Cc1ccc2c(c1)[nH]c(=S)n2C=C1C(=O)CC(C)(C)CC1=O | > 200 | > 200 | –
COc1cc2ccc1OCc1cccc(n1)COc1ccc(cc1OC)C=NCCNCCNCCN=C2 | > 200 | 110 | –
COc1ccc(C(=O)/C=C/c2cccnc2)cc1OC | > 200 | 2.75 | –
O=c1ccn([C@@H]2C[C@@H]2CO)c(=O)[nH]1 | – | – | inactive
Cc1ccc(S(=O)(=O)n2oc(=O)c(-c3ccccc3)c2N)cc1 | > 200 | 55 | –
[Cl][Sn]([Cl])([c]1ccccc1)[c]1ccccc1 | – | – | inactive

SMILES | EC50 [µM] | IC50 [µM] | outcome
C/C(=N\N=C(\N)OB(F)F)c1ccccn1 | > 200 | 141 | –
CCC1(O)C(=O)OCc2c1cc1n(c2=O)Cc2cc3cc(OC)c(OC)cc3nc2-1 (stereo not given) | > 10 | 1.29 | –
Nc1ccc(Nc2cc(=O)[nH]c(=O)[nH]2)cc1Cl | > 200 | > 200 | –
O=c1cc(O)nc2nc(-c3ccccc3)c(-c3ccccc3)nn12 | > 81.3 | > 81.3 | –
C#CCOc1cc2c(c3oc(=O)cc(CCC)c13)[C@@H](O)[C@H](C)[C@@H](C)O2 | > 200 | > 200 | –
C=C1CC[N+]2(CC(C)C)CCCC12 (stereo not given) | > 501 | > 501 | –
COc1ccc(/C(CCl)=C(\Nc2ccccc2)c2ccc(OC)c(OC)c2)cc1OC | > 200 | > 200 | –
FC(F)(Oc1ccc2oc3ccccc3c2c1)c1nc2ccccc2o1 | > 200 | 33.9 | –
CCc1n[nH]c(=O)n1NC(=O)c1ccccc1C(=O)O | > 200 | > 200 | –
O=C1/C(=C\c2cccc(Oc3ccccc3)c2)S(=O)(=O)C(c2ccccc2)N1c1ccccc1Cl (stereo not given) | > 2 | 0.0427 | –
CN(C)c1ccc(C=C2C(=O)NC(=O)NC2=O)cc1 | > 28.2 | > 28.2 | –
C#CC1(O)C(CO)OC(n2ccc(=O)[nH]c2=O)C1O[Si](C)(C)C(C)(C)C (stereo not given) | > 200 | 27.5 | –
COc1ccc(NC(=S)Nc2c(C)n(C)n(-c3ccccc3)c2=O)cc1 | > 200 | > 200 | –
ClCCCC1COc2ccccc2O1 (stereo not given) | > 200 | > 200 | –
Cc1ccc(C)c2sc3cc(=O)ccc-3nc12 | > 107 | > 107 | –
CC1(C)CSC(=S)N1 | > 200 | > 200 | –
Cn1cc(NC(=O)c2cc(NC(=O)c3cc(NC=O)cn3C)cn2C)cc1C(=O)NCCC(=N)N | > 513 | 30.2 | –
O=C(NC1C=Nc2ccc(Cl)cc2NC1=O)c1ccccc1Cl (stereo not given) | > 200 | 123 | –
COCCOCOC(CCCCO)c1cc(C)c(O[Si](C)(C)C(C)(C)C)c(C)c1 (stereo not given) | > 50.1 | 4.9 | –
O=[N+]([O-])c1ccc2[nH]c(=S)[nH]c(=S)c2c1 | > 200 | – | –
CC(C)C1CNC2N1C(=O)C2(C)OCc1ccccc1 (stereo not given) | > 251 | 155 | –
CNCC(=O)NC(CO)C(=O)NC(CO)C(=O)NC1C(C(N)=O)OC(n2ccc(N)nc2=O)C(O)C1O (stereo not given) | – | – | inactive
CCn1c(N)c(N=O)c(=O)[nH]c1=O | > 200 | > 200 | –
